Earlier results on one compound are cited in patent US20210147810A1, “SINGLE LUNG CELL-DERIVED ORGANOIDS” (Rutgers, The State University of New Jersey, priority 2017, published 2021).

Each structure is given as a SMILES string.

The data set deals with PTPRT-mutant NSCLC. To be noted: in vivo.

For the compound `CC(=O)c1cc2c(o1)C(=O)c1ccccc1C2=O` [BBI608], the anti-tumor activity entry was “effective anti-tumor activity”.
